Measurements as given in the supplement of paper PMC4862054.

Experiments:
Details in all cases: incubation time: 72 h
BT-474 [1] = experiment: normalised viability (% of control), CellTiter-Blue; higher = more viable cells (about 100 = DMSO control)
How it was run: (§1)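 Breast cancer cell lines were treated for 72 h in 384-well format and measured by CellTiter-Blue fluorescence at 560/590 nm. Results were normalised per plate to vehicle (100) and a positive kill control (0). The entry is normalised viability at a single listed concentration of the series.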

CAL-120 [2] = experiment: as above
How it was run: as §1

CAL-148 = experiment: as above
How it was run: as §1

CAL-51 [3] = experiment: as above
How it was run: as §1

CAL-85-1 [4] = experiment: as above
How it was run: as §1

HCC1143 = experiment: as above
How it was run: as §1

HCC1599 [5] = experiment: as above
How it was run: as §1

HCC1937 = experiment: as above
How it was run: as §1

HDQ-P1 [6] = experiment: as above
How it was run: as §1

Hs578T [7] = experiment: as above
How it was run: as §1

MDA-MB-231 [8] = experiment: as above
How it was run: as §1

MDA-MB-468 = experiment: as above
How it was run: as §1

MFM-223 = experiment: as above
How it was run: as §1

SK-BR-3 [9] = experiment: as above
How it was run: as §1

BT-474 [10] = experiment: drug sensitivity score (DSS), CellTiter-Glo (DSS (AUC-based score)); higher = stronger drug effect (viability inhibition or cytotoxicity); extreme values may be limits of the assay
How it was run: (§2)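 In 384-well plates, compound was laid out at 5 concentrations in 10-fold steps over a 10,000-fold range specific to each compound, and breast cancer cell lines were seeded on top in 20 µl suspension for a 72 h incubation. CellTox Green fluorescence and then CellTiter-Glo luminescence were read, and each plate was normalised to 0.1 % DMSO and a positive kill control. The drug sensitivity score was calculated from the area under the fitted dose-response curve.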

CAL-120 [11] = experiment: as above
How it was run: as §2

CAL-51 [12] = experiment: as above
How it was run: as §2

CAL-85-1 [13] = experiment: as above
How it was run: as §2

DU-4475 = experiment: as above
How it was run: as §2

HCC1599 [14] = experiment: as above
How it was run: as §2

HDQ-P1 [15] = experiment: as above
How it was run: as §2

Hs578T [16] = experiment: as above
How it was run: as §2

MDA-MB-231 [17] = experiment: as above
How it was run: as §2

SK-BR-3 [18] = experiment: as above
How it was run: as §2

COc1cc2nccc(Oc3ccc(NC(=O)C4(C(=O)Nc5ccc(F)cc5)CC4)cc3)c2cc1OC [Cabozantinib]
normalised viability [%]
Details	0.3 nM	1 nM	3 nM	10 nM	100 nM	1000 nM
BT-474 [1]	–	125	–	–	119	127
CAL-51 [3]	109	–	106	97.8	–	–
CAL-85-1 [4]	89.2	–	87.5	88.9	–	–
CAL-120 [2]	–	85.5	–	–	77.8	86.5
CAL-148	94.5	–	103	94.2	–	–
HCC1143	–	78.9	–	–	87.9	85.5
HCC1599 [5]	–	91.8	–	–	88.6	74.6
HCC1937	–	98	–	–	87.5	100
HDQ-P1 [6]	97.7	–	93.7	112	–	–
Hs578T [7]	–	128	–	–	102	111
MDA-MB-231 [8]	–	86.4	–	–	94.1	87.7
MDA-MB-468	–	110	–	–	106	101
MFM-223	–	88.5	–	–	84	53.7
SK-BR-3 [9]	–	115	–	–	110	109

Details	drug sensitivity score
BT-474 [10]	1.14
CAL-51 [12]	0
CAL-85-1 [13]	0
CAL-120 [11]	0
DU-4475	0
HCC1599 [14]	0
HDQ-P1 [15]	0
Hs578T [16]	0
MDA-MB-231 [17]	0
SK-BR-3 [18]	0

COc1cc([C@@H]2c3cc4c(cc3[C@@H](O[C@@H]3O[C@@H]5CO[C@@H](C)O[C@H]5[C@H](O)[C@H]3O)[C@H]3COC(=O)[C@H]23)OCO4)cc(OC)c1O [Etoposide]
normalised viability [%]
Details	3 nM	10 nM	30 nM	100 nM	1000 nM	10000 nM
BT-474 [1]	–	116	–	–	96.4	87.3
CAL-51 [3]	98.6	–	85.8	77.3	–	–
CAL-85-1 [4]	99.9	–	93.9	102	–	–
CAL-120 [2]	–	92.5	–	–	73.6	59.1
CAL-148	88.6	–	81	85.7	–	–
HCC1143	–	85.7	–	–	66.6	47.3
HCC1599 [5]	–	99.1	–	–	94	72.3
HCC1937	–	78.5	–	–	64.9	38.9
HDQ-P1 [6]	90.8	–	91	33.6	–	–
Hs578T [7]	–	94.6	–	–	77.1	52.4
MDA-MB-231 [8]	–	121	–	–	82.7	66.1
MDA-MB-468	–	107	–	–	73	35.9
MFM-223	–	99.2	–	–	107	81.6
SK-BR-3 [9]	–	98.2	–	–	46.5	12.9

Details	drug sensitivity score
BT-474 [10]	3.57
CAL-51 [12]	8.68
CAL-85-1 [13]	0.96
CAL-120 [11]	2.02
DU-4475	9.9
HCC1599 [14]	9.75
HDQ-P1 [15]	0.733
Hs578T [16]	2.84
MDA-MB-231 [17]	0.846
SK-BR-3 [18]	9.09

Oc1nc(-c2ccc(C(F)(F)F)cc2)nc2c1CSCC2 [XAV-939]
normalised viability [%]
Details	3 nM	10 nM	30 nM	100 nM	1000 nM	10000 nM
BT-474 [1]	–	107	–	–	100	103
CAL-51 [3]	102	–	101	101	–	–
CAL-85-1 [4]	96	–	92.8	94.7	–	–
CAL-120 [2]	–	90.6	–	–	92.8	105
CAL-148	89.3	–	90.4	94.3	–	–
HCC1143	–	80.4	–	–	81.9	80.9
HCC1599 [5]	–	118	–	–	95	115
HCC1937	–	113	–	–	89.3	122
HDQ-P1 [6]	113	–	104	98.6	–	–
Hs578T [7]	–	90.8	–	–	82.3	85.5
MDA-MB-231 [8]	–	89.5	–	–	87.6	71.4
MDA-MB-468	–	111	–	–	105	98.4
MFM-223	–	110	–	–	100	86.9
SK-BR-3 [9]	–	99.5	–	–	104	115

Details	drug sensitivity score
BT-474 [10]	3.54
CAL-51 [12]	8.6
CAL-85-1 [13]	0
CAL-120 [11]	0
DU-4475	0
HCC1599 [14]	0
HDQ-P1 [15]	0
Hs578T [16]	0
MDA-MB-231 [17]	2.7
SK-BR-3 [18]	0

N[C@@H](CSC(c1ccccc1)(c1ccccc1)c1ccccc1)C(=O)O [S-trityl-L-cysteine]
normalised viability [%]
Details	12 nM	40 nM	120 nM	400 nM	4000 nM	40000 nM
BT-474 [1]	–	111	–	–	94	25.9
CAL-51 [3]	87	–	90.5	87	–	–
CAL-85-1 [4]	105	–	106	101	–	–
CAL-120 [2]	–	110	–	–	42.4	35.2
CAL-148	112	–	114	114	–	–
HCC1143	–	134	–	–	113	58.6
HCC1599 [5]	–	94.9	–	–	99.3	102
HCC1937	–	98.7	–	–	24.8	22.6
HDQ-P1 [6]	94.4	–	92.5	110	–	–
Hs578T [7]	–	114	–	–	36.6	16.8
MDA-MB-231 [8]	–	86.8	–	–	27.9	25.9
MDA-MB-468	–	102	–	–	34.5	34.6
MFM-223	–	102	–	–	100	78.2
SK-BR-3 [9]	–	112	–	–	18.3	20.1

Details	drug sensitivity score
BT-474 [10]	0
CAL-51 [12]	0
CAL-85-1 [13]	0
CAL-120 [11]	0
DU-4475	0
HCC1599 [14]	0
HDQ-P1 [15]	0
Hs578T [16]	0
MDA-MB-231 [17]	0
SK-BR-3 [18]	0
